Structures are written as SMILES.

For this test, the target named is USP14 (Homo sapiens, UniProt P54578). The test is described as follows: USP14 inhibition assay. Type of test: biochemical. The following applies: average value from three experimental determinations; reported as potency bands; read-out: IC50 (USP14 inhibition). The source says: The IC50 values in the Table below represent the average value from three experimental determinations.
These IC50 values represent the average value from three experimental determinations.

Chain of USP14 (P54578 whole entry): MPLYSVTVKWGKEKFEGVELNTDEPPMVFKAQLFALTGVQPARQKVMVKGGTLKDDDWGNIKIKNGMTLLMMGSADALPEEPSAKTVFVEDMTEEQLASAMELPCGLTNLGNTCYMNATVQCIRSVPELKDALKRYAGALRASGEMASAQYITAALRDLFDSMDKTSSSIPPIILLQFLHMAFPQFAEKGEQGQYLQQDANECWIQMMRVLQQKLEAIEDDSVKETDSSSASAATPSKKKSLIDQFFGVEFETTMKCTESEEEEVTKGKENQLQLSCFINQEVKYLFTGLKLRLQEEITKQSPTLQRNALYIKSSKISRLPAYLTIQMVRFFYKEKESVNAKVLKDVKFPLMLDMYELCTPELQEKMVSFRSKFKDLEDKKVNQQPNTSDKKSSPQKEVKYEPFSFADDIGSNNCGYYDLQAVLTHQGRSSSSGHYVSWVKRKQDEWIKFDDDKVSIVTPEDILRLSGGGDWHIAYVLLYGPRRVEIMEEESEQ
Chain of USP14 (Q13200 whole entry partner): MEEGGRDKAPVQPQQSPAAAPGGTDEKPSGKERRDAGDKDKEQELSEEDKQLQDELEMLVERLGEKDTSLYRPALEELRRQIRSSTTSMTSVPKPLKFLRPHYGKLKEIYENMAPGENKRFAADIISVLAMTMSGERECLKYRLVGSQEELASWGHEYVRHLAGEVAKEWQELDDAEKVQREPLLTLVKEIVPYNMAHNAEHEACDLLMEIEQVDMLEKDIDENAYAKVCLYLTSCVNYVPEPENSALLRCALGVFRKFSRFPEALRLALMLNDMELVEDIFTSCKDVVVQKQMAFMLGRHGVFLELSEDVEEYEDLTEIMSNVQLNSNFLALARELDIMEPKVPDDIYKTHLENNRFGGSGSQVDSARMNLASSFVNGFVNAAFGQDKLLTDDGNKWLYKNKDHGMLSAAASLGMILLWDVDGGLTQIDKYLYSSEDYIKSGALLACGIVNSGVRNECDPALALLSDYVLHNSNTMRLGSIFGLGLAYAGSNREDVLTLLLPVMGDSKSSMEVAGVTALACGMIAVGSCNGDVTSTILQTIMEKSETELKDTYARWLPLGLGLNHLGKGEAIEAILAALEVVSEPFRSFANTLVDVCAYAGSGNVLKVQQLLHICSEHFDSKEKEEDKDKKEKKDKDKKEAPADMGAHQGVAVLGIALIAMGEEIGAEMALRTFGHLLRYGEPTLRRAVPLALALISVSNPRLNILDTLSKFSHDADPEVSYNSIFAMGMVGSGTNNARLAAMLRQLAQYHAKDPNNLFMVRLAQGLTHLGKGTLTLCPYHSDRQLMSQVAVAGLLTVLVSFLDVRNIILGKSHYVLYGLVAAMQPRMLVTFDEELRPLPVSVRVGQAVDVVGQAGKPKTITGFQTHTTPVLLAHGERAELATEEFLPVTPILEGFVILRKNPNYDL
Chain of USP14 (P35998 whole entry partner): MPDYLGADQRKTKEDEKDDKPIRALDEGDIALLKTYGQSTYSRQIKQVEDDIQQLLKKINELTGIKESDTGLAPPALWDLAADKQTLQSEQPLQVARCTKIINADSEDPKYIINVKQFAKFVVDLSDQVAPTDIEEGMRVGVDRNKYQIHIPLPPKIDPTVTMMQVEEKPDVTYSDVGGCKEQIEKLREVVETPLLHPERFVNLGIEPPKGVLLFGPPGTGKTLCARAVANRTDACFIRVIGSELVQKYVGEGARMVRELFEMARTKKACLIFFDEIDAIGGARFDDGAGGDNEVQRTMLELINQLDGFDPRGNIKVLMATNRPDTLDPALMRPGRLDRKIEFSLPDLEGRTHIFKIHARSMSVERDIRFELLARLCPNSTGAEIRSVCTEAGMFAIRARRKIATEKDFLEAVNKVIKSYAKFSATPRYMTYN

`CN(c1nc(CC(=O)N2CC[C@@H](C(C)(C)O)C2)nc2sc3c(c12)CCCC3)C1CC1` [Compound 37, 2-[4-(Cyclopropyl-methyl-amino)-5,6,7,8-tetrahydro-benzo[4,5]thieno[2,3-d]pyrimidin-2-yl]-1-[(R)-3-(1-hydroxy-1-methyl-ethyl)-pyrrolidin-1-yl]-ethanone]: the IC50 was below 1 µM.

As for `CN(c1nc(CC(=O)N2CCCC2C(N)=O)nc2sc3c(c12)CCCC3)C1CC1` (centres unmarked) [Compound 38, 1-(2-(4-(Cyclopropyl(methyl)amino)-5,6,7,8-tetrahydrobenzo[4,5]thieno[2,3-d]pyrimidin-2-yl)acetyl)pyrrolidine-2-carboxamide], the IC50 was below 1 µM.

Consider `CN(c1nc(CC(=O)N2CCCC2CO)nc2sc3c(c12)CCCC3)C1CC1` (centres unmarked) [Compound 39, 2-[4-(Cyclopropyl-methyl-amino)-5,6,7,8-tetrahydro-benzo[4,5]thieno[2,3-d]pyrimidin-2-yl]-1-(2-hydroxymethyl-pyrrolidin-1-yl)-ethanone], for which the IC50 is below 1 µM.

With `CCOC(=O)Cc1nc(N(C)CC)c2c3c(sc2n1)CCCC3` [Compound 40, [4-(Ethyl-methyl-amino)-5,6,7,8-tetrahydro-benzo[4,5]thieno[2,3-d]pyrimidin-2-yl]-acetic acid ethyl ester], the IC50 was above 5 µM.

With `CCOC(=O)Cc1nc(N(C)C(C)C)c2c3c(sc2n1)CCCC3` [Compound 41, [4-(Isopropyl-methyl-amino)-5,6,7,8-tetrahydro-benzo[4,5]thieno[2,3-d]pyrimidin-2-yl]-acetic acid ethyl ester], the IC50 was above 5 µM.

As to `CN(C)C(=O)Cc1nc(N2CCCC2)c2c3c(sc2n1)CCCC3` [Compound 42, N,N-Dimethyl-2-(4-pyrrolidin-1-yl-5,6,7,8-tetrahydro-benzo[4,5]thieno[2,3-d]pyrimidin-2-yl)-acetamide], the IC50 is above 5 µM.

For the compound `CN(C)C(=O)Cc1nc(N(C)C)c2c3c(sc2n1)CCCC3` [Compound 43, 2-(4-Dimethylamino-5,6,7,8-tetrahydro-benzo[4,5]thieno[2,3-d]pyrimidin-2-yl)-N,N-dimethyl-acetamide], the IC50 was 1 to 5 µM.

For `CN(C)C(=O)Cc1nc(N2CCC2)c2c3c(sc2n1)CCCC3` [Compound 44, 2-(4-(Azetidin-1-yl)-5,6,7,8-tetrahydrobenzo[4,5]thieno[2,3-d]pyrimidin-2-yl)-N,N-dimethylacetamide], the IC50 is above 5 µM.

For `CCN(C)c1nc(CC(=O)O)nc2sc3c(c12)CCCC3` [Compound 45, [4-(Ethyl-methyl-amino)-5,6,7,8-tetrahydro-benzo[4,5]thieno[2,3-d]pyrimidin-2-yl]-acetic acid], the IC50 is above 5 µM.

For `CC(C)N(C)c1nc(CC(=O)O)nc2sc3c(c12)CCCC3` [Compound 46, [4-(Isopropyl-methyl-amino)-5,6,7,8-tetrahydro-benzo[4,5]thieno[2,3-d]pyrimidin-2-yl]-acetic acid], the IC50 was above 5 µM.

On to `CN(c1nc(CCC(=O)O)nc2sc3c(c12)CCCC3)C1CC1` [Compound 47, 3-[4-(Cyclopropyl-methyl-amino)-5,6,7,8-tetrahydro-[1]benzothiopheno[2,3-d]pyrimidin-2-yl]-propionic acid], for which the IC50 is 1 to 5 µM.

Take `CN(C)C(=O)CCc1nc(N(C)C2CC2)c2c3c(sc2n1)CCCC3` [Compound 48, 3-[4-(Cyclopropyl-methyl-amino)-5,6,7,8-tetrahydro-[1]benzothiopheno[2,3-d]pyrimidin-2-yl]-N,N-dimethyl-propionamide]: the IC50 lay within 1 to 5 µM.

Consider `CN(c1nc(CO)nc2sc3c(c12)CCCC3)C1CC1` [Compound 49, [4-(Cyclopropyl-methyl-amino)-5,6,7,8-tetrahydro-benzo[4,5]thieno[2,3-d]pyrimidin-2-yl]-methanol], for which the IC50 was 1 to 5 µM.

With `CN(c1nc(COc2cccnc2)nc2sc3c(c12)CCCC3)C1CC1` [Compound 50, Cyclopropyl-methyl-[2-(pyridine-3-yloxymethyl)-5,6,7,8-tetrahydro-benzo[4,5]thieno[2,3-d]pyrimidin-4-yl]-amine], the IC50 was above 5 µM.

Take `CN(c1nc(CC(=O)C(F)(F)F)nc2sc3c(c12)CCCC3)C1CC1` [Compound 51, 3-[4-(Cyclopropyl-methyl-amino)-5,6,7,8-tetrahydrobenzo[4,5]thieno[2,3-d]pyrimidin-2-yl]-1,1,1-trifluoro-propan-2-one]: the IC50 fell in the range of 1 to 5 µM.

Regarding `CN(c1nc(CC(=O)O)nc2sc3c(c12)CCCCC3)C1CC1` [Compound 52, [4-(Cyclopropyl-methyl-amino)-6,7,8,9-tetrahydro-5H-10-thia-1,3-diazabenz[a]azulen-2-yl]-acetic acid], the IC50 is above 5 µM.

In the case of `CN(C)C(=O)Cc1nc(N(C)C2CC2)c2c3c(sc2n1)CCCCC3` [Compound 53, 2-[4-(Cyclopropyl-methyl-amino)-6,7,8,9-tetrahydro-5H-10-thia-1,3-diaza-benz[a]azulen-2-yl]-N,N-dimethyl-acetamide], the IC50 fell in the range of 1 to 5 µM.
